Laboratory results as given in patent US11918568B2, “Fused ring compound having urea structure” (DAIICHI SANKYO COMPANY, LIMITED, priority 2018, dated 2024).
“Also recorded” adds a separate entry of the source.

Legend:
[1] = system: HEK293A cells; experiment: Effect of NAMPT activator on the intracellular NAD+ level (in vitro cell-based assay); details: HEK293-A, 3 h culture with compound, NAD+/NADH-Glo assay, read-out: EC50 (intracellular NAD+ content)
Method: HEK293A cells were cultured in Dulbecco's Modified Eagle Medium (DMEM (high glucose)) containing 10% fetal bovine serum (FBS), non-essential amino acid (NEAA), and antibiotic-antimycotic [reaction medium]. On the day before the test, HEK293A cells were inoculated at a ratio of 3.0×10^4 cells/80 μL to 96 well poly-D-lysine coated plate and cultured overnight in a CO2 incubator.
On the day of the test, each test compound diluted with reaction medium to a concentration of 5 times the final concentration was added at a ratio of 20 μL/well, and the cells were further cultured for 3 h. After removal of the medium, the cells were lysed in 50 μL/well of Bicarbonate Base Buffer (100 mM sodium carbonate, 20 mM sodium bicarbonate, 100 mM nicotinamide, 20 mM Triton X-100) containing 1% dodecyl trimethyl-ammonium bromide (DTAB). The NAD^+ content in the cell extract was measured using NAD^+/NADH-Glo assay kit according to the manufacturer's instructions. Hereinafter, the procedures will be briefly described. 20 μL of the lysate was separated, and 10 μL of 0.4 N HCL was added thereto, followed by incubation at 60° C. for 15 min and subsequently at 25° C. for 10 min. The mixture was neutralized by the addition of 10 μL of 0.5 M Trizma base solution and then diluted 10-fold with distilled water. 15 μL of the diluted sample was mixed with an equal amount (15 μL) of NAD^+/NADH-Glo reagent in 384 well black plate, and the mixture was incubated for 30 min in the dark. Then, chemiluminescence intensity was measured.
EC50 value of each compound was calculated from the calculated values of the compound at various concentrations using GraphPad Prism software (Table 2).

[2] = target: human NAMPT enzyme (Homo sapiens (Human), UniProt P43490); experiment: NAMPT enzyme activating effect (in vitro cell-free enzyme assay); type: biochemical; details: 2 ng/mL human NAMPT enzyme, 1-h incubation at 25° C., fluorescence of NMN derivative
Method: The NAMPT enzyme assay was conducted in accordance with the method of Formentini et al. […] Hereinafter, the procedures will be briefly described. The NAMPT enzyme reaction was carried out using polypropylene 384 well V shaped black plate (Greiner Bio One International GmbH). […] Then, 22 μL of 88% formic acid was added and the mixture was further incubated for 30 min in the dark. The NAMPT enzyme activity was calculated as the difference between fluorescence intensity (Ex 380 nm/Em 450 nm) from the reaction of a test compound treatment group and fluorescence intensity from control reaction free from the NAMPT enzyme. [NAMPT enzyme activity]=[Fluorescence intensity of the test substance treatment group]−[Mean fluorescence intensity of the control reaction free from the NAMPT enzyme] EC50 value of each compound was calculated from the enzyme activities of the compound at various concentrations by using GraphPad Prism software (GraphPad Software) (Table 1)

[3] = system: C57BL/6N mice; experiment: NAD+ level in retina (normal mouse); type: in vivo; details: normal C57BL/6N mice, 30 mg/kg orally, 4 h after administration, LC/MS
Method: 4 h after the administration, each mouse was sacrificed by exanguination. The retina was harvested from both eyes. The retina (4 eye pools per sample) was homogenized with a 100-fold amount of 2 M perchloric acid per retinal tissue weight. Then, the samples were centrifuged and the supernatant was neutralized with 5 M […]. After removal of potassium perchlorate, the NAD^+ concentration in the supernatant sample was measured using LC/MS.

[4] = system: C57BL/6N DIO mice; experiment: Tissue NAD+ level in DIO mouse - 2 (major tissues); type: in vivo; details: 30 mg/kg orally, 24 h after administration, LC/MS
Method: (§1) 24 h after the administration, each mouse was sacrificed by exanguination. The heart, kidney, spleen, lung, and white adipose tissues were harvested. For a control, the same organs as above were harvested from 8-week-old male C57BL/6N mice. Each tissue was homogenized with a 10- or 100-fold amount of 2 M perchloric acid per its weight. Then, the samples were centrifuged and the supernatant was neutralized with 5 M […]. After removal of potassium perchlorate, the NAD^+ concentration in the supernatant of sample was measured using LC/MS.

[5] = system: C57BL/6N DIO mice; experiment: Energy expenditure in DIO mouse (oxygen consumption); type: in vivo; details: 100 mg/kg orally once a day, vs vehicle group
Method: 48-week-old male C57BL/6N DIO mice were divided into 2 groups each involving 4 mice. Each mouse was acclimatized for 3 d under individual housing and then fasted overnight. […] Oxygen consumptions (VO2) and carbon dioxide outputs (VCO2) were measured for approximately 73 h (approximately 9 h under fasting (on the order of 9:00 to 18:00) and approximately 64 h under feeding (on the order of 18:00 to 10:00 of two days later)) using Comprehensive Lab Animal Monitoring System (Columbus Instruments International Corp.).

[6] = system: C57BL/6N mice; experiment: Tissue NAD+ level in normal mice; type: in vivo, mouse; details: normal C57BL/6N mice, 30 or 100 mg/kg orally, 24 h after administration, LC/MS
Method: as §1, with “exsanguination.” for “exanguination.”, “liver, gastrocnemius, soleus,” for “heart, kidney, spleen, lung,”, “brown” for “white”, “harvested.” for “harvested. For a control, the same organs as above were harvested from 8-week-old male C57BL/6N mice.”

[7] = system: C57BL/6N DIO mice; experiment: Tissue NAD+ level in diet-induced obese (DIO) mice; type: in vivo, mouse; details: 30 or 100 mg/kg orally, 24 h after administration, LC/MS
Method: as §1, with “exsanguination.” for “exanguination.”, “liver, gastrocnemius, soleus,” for “heart, kidney, spleen, lung,”, “brown” for “white”, “harvested.” for “harvested. For a control, the same organs as above were harvested from 8-week-old male C57BL/6N mice.”

[8] = system: C57BL/6N DIO mice; experiment: Anti-obesity effect (DIO mouse, free feeding); type: in vivo; details: DIO mice freely fed high-fat diet, 30 mg/kg orally once a day for 3 wk, vs vehicle group
Excerpt: 45-week-old male C57BL/6N DIO mice were each acclimatized for 1 wk under individual housing. Then, the mice were divided into 2 groups each involving 6 mice with their weights, amounts of weight change, and food intakes during the acclimatization period as indexes. Each mouse was freely fed a purified high-fat diet (D12451) for 3 wk under individual rearing. […] The weight was compared between the test groups.

[9] = system: WKY rats; details: 5 mg/kg intraperitoneally 0.5 h before Main FST, vs vehicle control

human NAMPT enzyme, sequence (P43490 whole entry): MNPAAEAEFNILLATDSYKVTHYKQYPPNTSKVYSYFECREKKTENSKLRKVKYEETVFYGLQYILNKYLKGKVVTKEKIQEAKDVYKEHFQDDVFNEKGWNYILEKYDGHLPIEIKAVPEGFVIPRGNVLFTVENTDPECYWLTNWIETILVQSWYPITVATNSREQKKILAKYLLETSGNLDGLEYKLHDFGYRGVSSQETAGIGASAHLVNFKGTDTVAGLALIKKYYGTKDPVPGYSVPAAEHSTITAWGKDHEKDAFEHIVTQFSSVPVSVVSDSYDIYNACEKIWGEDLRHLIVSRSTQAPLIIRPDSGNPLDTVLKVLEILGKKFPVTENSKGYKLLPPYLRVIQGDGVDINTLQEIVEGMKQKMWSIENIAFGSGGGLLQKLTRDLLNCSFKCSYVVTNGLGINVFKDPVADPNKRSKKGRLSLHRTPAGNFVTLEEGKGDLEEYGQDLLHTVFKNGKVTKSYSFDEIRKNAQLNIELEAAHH

Row | SMILES | EC50 [1] | EC50 [2] | also measured
1 | Cc1ccccc1-c1nc2ccc(NC(=O)NCc3ccncc3)cc2o1 [Example 1, N-[2-(2-Methylphenyl)-1,3-benzoxazol-6-yl]-N′-[(pyridin-4-yl)methyl]urea] | 430 nM | 110 nM | –
2 | O=C(NCc1ccncc1)Nc1ccc2nc(-c3ccccc3)oc2c1 [Example 2, N-(2-Phenyl-1,3-benzoxazol-6-yl)-N′-[(pyridin-4-yl)methyl]urea] | 190 nM | 50 nM | NAD+ levels in retina [3]: NAD^+ levels were increased; also recorded: increases NAD^+ levels; NAD+ levels in major tissues (heart, kidney, spleen, lung, white adipose tissue) [4]: NAD^+ levels were increased; also recorded: increases NAD^+ levels; oxygen consumption (VO2) per weight [5]: increased an oxygen consumption per weight; also recorded: increases oxygen consumption; NAD+ levels in liver, gastrocnemius, soleus, and brown adipose tissues [6]: increases NAD^+ levels; NAD+ levels in liver, gastrocnemius, soleus, and brown adipose tissues [7]: increases NAD^+ levels; body weight change [8]: weight lowering effect; also recorded: decreases body weights
3 | O=C(NCc1ccncc1)Nc1ccc2oc(-c3ccccc3)nc2c1 [Example 7, N-(2-Phenyl-1,3-benzoxazol-5-yl)-N′-[(pyridin-4-yl)methyl]urea] | 540 nM | 410 nM | –
4 | O=C(NCc1ccncc1)Nc1ccc2nc(-c3ccccc3)nn2c1 [Example 8, N-(2-Phenyl[1,2,4]triazolo[1,5-a]pyridin-6-yl)-N′-[(pyridin-4-yl)methyl]urea] | 210 nM | 80 nM | –
5 | N#Cc1c2ccc(NC(=O)NCc3ccncc3)cc2nn1-c1ccccc1 [Example 21, N-(3-Cyano-2-phenyl-2H-indazol-6-yl)-N′-[(pyridin-4-yl)methyl]urea] | 230 nM | 110 nM | –
6 | Cn1nccc1-c1c(-c2ccccc2)nn2cc(NC(=O)NCc3ccncc3)ccc12 [Example 22, N-[3-(1-Methyl-1H-pyrazol-5-yl)-2-phenylpyrazolo[1,5-a]pyridin-6-yl]-N′-[(pyridin-4-yl)methyl]urea] | 120 nM | 80 nM | –
7 | CCN(CC)C(=O)c1noc2cc(NC(=O)NCc3ccncc3)ccc12 [Example 50, N,N-Diethyl-6-({[(pyridin-4-yl)methyl]carbamoyl}amino)-1,2-benzoxazole-3-carboxamide] | 450 nM | 240 nM | –
8 | COc1cccc(C2Cc3ccc(NC(=O)NCc4ccncc4)cc3O2)c1 (centres unmarked) [Example 52, N-[2-(3-Methoxyphenyl)-2,3-dihydro-1-benzofuran-6-yl]-N′-[(pyridin-4-yl)methyl]urea] | 1240 nM | 80 nM | –
9 | CCN(CC)C(=O)c1coc2cc(NC(=O)NCc3ccncc3)ccc12 [Example 55, N,N-Diethyl-6-({[(pyridin-4-yl)methyl]carbamoyl}amino)-1-benzofuran-3-carboxamide] | – | 490 nM | –
10 | CCN(Cc1ccccc1)C(=O)c1noc2cc(NC(=O)NCc3ccncc3)ccc12 [Example 56, N-Benzyl-N-ethyl-6-({[(pyridin-4-yl)methyl]carbamoyl}amino)-1,2-benzoxazole-3-carboxamide] | – | 30 nM | –
11 | O=C(NCc1ccncc1)Nc1ccc2c(C(=O)N3CC4CCC(C3)O4)noc2c1 [Example 57, N-[3-(8-Oxa-3-azabicyclo[3.2.1]octane-3-carbonyl)-1,2-benzoxazol-6-yl]-N′-[(pyridin-4-yl)methyl]urea] | – | 190 nM | –
12 | CNC1(c2ccccc2Cl)CCCCC1=O (centres unmarked) [ketamine, Ketamine, reference compound] | – | – | immobility time in forced swimming test [9]: significantly shortened the immobility time
